Consider 10 molecules from patent publication EP0326331B1, “Substituted quinolines and cinnolines” (Dow AgroSciences LLC, priority 1988, dated 1989).

Type in all cases: in vivo
In experiment [1] the test system is Erysiphe graminis tritici (powdery mildew). The experiment in a line: Test 1 greenhouse foliar spray screen, powdery mildew on wheat. The following applies: Blumeria graminis, foliar, Test 1, foliar spray on wheat; disease control rating at 400 ppm / 100 ppm; read-out: POWD MDEW.
In experiment [2] the test system is Pyricularia oryzae (rice blast). The experiment in a line: whole plant or invertebrate. The following applies: Pyricularia oryzae, foliar, read-out: RICE BLAST, Test 1, foliar spray on rice; disease control rating at 400 ppm / 100 ppm.
The test system of experiment [3] is Puccinia recondita tritici (leaf rust). The experiment is described as follows: Test 1 greenhouse foliar spray screen, leaf rust on wheat. Conditions: Puccinia recondita, foliar, Test 1, foliar spray on wheat; disease control rating at 400 ppm / 100 ppm.
The test system of experiment [4] is Botrytis cinerea (gray mold). The experiment is described as follows: Test 1 greenhouse foliar spray screen, gray mold on grape berries. The following applies: Botrytis cinerea, foliar; Test 1, spray on grape berries; disease control rating at 400 ppm / 100 ppm.
For experiment [5], the system named is Pseudoperonospora cubensis (downy mildew). The experiment in a line: Test 1 greenhouse foliar spray screen, downy mildew on squash. The following applies: Pseudoperonospora cubensis, foliar, Test 1, foliar spray on squash; disease control rating at 400 ppm / 100 ppm; read-out: DOWN MDEW.
Experiment [6] has as its system southern armyworm (Spodopetra eridania Cramer). The experiment in a line: Mite/insect screen, SAW. The following applies: Spodoptera eridania, foliar, percent mortality, foliar spray on squash, read-out: SAW RESULTS %; for mortality at 400 ppm: rate 400 ppm; for mortality at 200 ppm: rate 200 ppm. In outline: (§1)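 Read-out: percent mortality after standard exposure periods. Test solutions were water dilutions of compound dissolved in acetone/alcohol (50:50) with emulsifier blends; leaves were sprayed to runoff on both surfaces and air-dried for one hour before exposure.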

In experiment [7] the test system is Twospotted spider mites (Tetranychus urticae Koch). The experiment is described as follows: Mite/insect screen, SM. The following applies: for mortality at 400 ppm / mortality at 200 ppm: Tetranychus urticae, foliar, percent mortality, foliar spray on squash, read-out: SM RESULTS %; for mortality at 400 ppm: rate 400 ppm; for mortality at 200 ppm: rate 200 ppm; for activity as miticides: summary statement in the description. Summed up:
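Foliar spray to runoff (10 psi), 1 h drying; aqueous dilutions from acetone/alcohol emulsifier stock. Mortality (%) after standard exposure.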

Experiment [8] deals with melon aphids (Aphis gossypii Glover). The experiment in a line: Mite/insect screen, MA. Conditions: Aphis gossypii, foliar, percent mortality, foliar spray on squash, read-out: MA RESULTS %; for mortality at 400 ppm: rate 400 ppm; for mortality at 200 ppm: rate 200 ppm. Summed up:
as §1

In another experiment the test system is corn rootworm. The experiment is described as follows: Mite/insect screen, CRW. The following applies: percent mortality, read-out: CRW RESULTS %; for mortality at 24 ppm: CRW rate 24.00 ppm; for mortality at 12 ppm: CRW rate 12.00 ppm. In outline:
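Read-out: % mortality after standard exposure. Formulation: acetone/alcohol (50:50) with emulsifiers at 23 g and 13 g per liter, water-diluted to final test levels.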

Turning to `Clc1ccccc1CCOc1ccnc2c(Cl)cccc12` [Example 216, 8-chloro-4-[2-(2-chlorophenyl)ethoxy]quinoline], the pest or weed control at 400 ppm in experiment [1] fell in the range of 90 to 100%; in experiment [2] it was 90 to 100%; in experiment [3], 90 to 100%; in experiment [4], 0 to 19%; in experiment [5], 90 to 100%. Also, the mortality at 400 ppm in [6], in experiment [7] and in experiment [8] was 0% in each case. Moreover, the mortality at 24 ppm in the experiment on corn rootworm came to 100%.

Consider `CC(C)c1ccccc1CCOc1ccnc2c(F)cccc12` [Example 217, 8-fluoro-4-[2-(2-(1-methylethyl)phenyl)ethoxy]quinoline], for which the pest or weed control at 400 ppm in [1] was in the range of 90 to 100%; in experiment [2], 90 to 100%; in experiment [3], 90 to 100%; in [4] it was 0 to 19%; in [5] it was 90 to 100%. The mortality at 400 ppm in experiment [6], in experiment [7] and in experiment [8] was 0% each time. Also, the mortality at 24 ppm with corn rootworm was determined as 0%.

Take `Fc1cccc2c(OCCc3cccc(Sc4ccccc4)c3)ccnc12` [Example 218, 8-fluoro-4-[2-(3-(phenylthio)phenyl)ethoxy]quinoline]: the pest or weed control at 400 ppm in experiment [1] was in the range of 90 to 100%; in experiment [2], 90 to 100%; in [3], 90 to 100%; in experiment [4], 0 to 19%; in experiment [5], 90 to 100%. In addition, the mortality at 400 ppm in experiment [6] amounted to 100%; in experiment [7], 0%; in [8], 0%. Further, the mortality at 24 ppm in the experiment on corn rootworm amounted to 0%.

As for `Fc1cccc2c(OCCc3ccc(Br)cc3)ccnc12` [Example 223, 4-[2-(4-bromophenyl)ethoxy]-8-fluoroquinoline], the pest or weed control at 400 ppm in experiment [1] was 90 to 100%; in experiment [2], 90 to 100%; in [3] it was 90 to 100%; in experiment [4], 0 to 19%; in experiment [5], 0 to 19%. In addition, the mortality at 200 ppm in [6] stood at 0%; in experiment [7], 0%; in experiment [8], 80%. In addition, the mortality at 400 ppm was determined as 0% in experiment [6], 0% in [7] and 100% in experiment [8]. Besides, in the experiment on corn rootworm, the mortality at 12 ppm is 80%. In the experiment with corn rootworm, the mortality at 24 ppm came to 0%.

As for `Clc1ccc(CCOc2ccnc3cc(Cl)ccc23)cc1` [Example 226, 7-chloro-4-[2-(4-chlorophenyl)ethoxy]quinoline], the pest or weed control at 400 ppm in [1] lay within 20 to 89%; in experiment [2], 0 to 19%; in [3], 20 to 89%; in experiment [4] it was 0 to 19%; in experiment [5], 20 to 89%. Also, the mortality at 200 ppm in experiment [6], in experiment [7] and in [8] was 0% throughout. For the same molecule, the mortality at 400 ppm in experiment [6], in experiment [7] and in experiment [8] was 0% each time. In addition, the mortality at 12 ppm in the experiment with corn rootworm came out at 0%. Moreover, the mortality at 24 ppm in the experiment with corn rootworm came to 0%.

In the case of `Cc1cc(C)c(CCOc2ccnc3c(F)cccc23)c(C)c1` [Example 227, 8-fluoro-4-[2-(2,4,6-trimethylphenyl)ethoxy]quinoline], the pest or weed control at 400 ppm in experiment [1] is 0 to 19%; in experiment [2] it was 20 to 89%; in experiment [3], 20 to 89%; in experiment [4] it was 0 to 19%; in experiment [5], 0 to 19%. The mortality at 200 ppm in experiment [6], in experiment [7] and in experiment [8] was 0% throughout. Further, the mortality at 400 ppm in experiment [6], in [7] and in experiment [8] was 0% throughout. Further, in the experiment on corn rootworm, the mortality at 12 ppm stood at 0%. Besides, in the experiment with corn rootworm, the mortality at 24 ppm stood at 0%.

Regarding `CC(C)(C)c1ccc(CCOc2ccnc3cc(Cl)ccc23)cc1` [Example 231, 7-chloro-4-[2-(4-(t-butyl)phenyl)ethoxy]quinoline], the pest or weed control at 400 ppm lay in the range of 20 to 89% in [1]; 0 to 19% in [2]; 0 to 19% in experiment [3]; 0 to 19% in experiment [4]; 0 to 19% in [5]. The mortality at 200 ppm in experiment [6] was found to be 0%; in [7], 90%; in [8], 0%. Also, the mortality at 400 ppm in [6] came to 0%; in [7], 40%; in experiment [8], 50%. In addition, in experiment [7], the activity as miticides result is “particularly excellent activity”. In addition, the mortality at 12 ppm in the experiment on corn rootworm amounted to 0%. Moreover, the mortality at 24 ppm with corn rootworm was 0%.

Take `CC(C)(C)c1ccc(CCOc2ccnc3cc(F)ccc23)cc1` [Example 232, 4-[2-(4-(t-butyl)phenyl)ethoxy]-7-fluoroquinoline]: the pest or weed control at 400 ppm in experiment [1], in [2], in [3], in [4] and in [5] was 0 to 19% in each case. Besides, the mortality at 200 ppm is 0% in [6], 100% in experiment [7] and 70% in experiment [8]. The mortality at 400 ppm in experiment [6] was 30%; in experiment [7] it was 80%; in experiment [8], 40%. In experiment [7], the activity as miticides entry is recorded as “particularly excellent activity”. The mortality at 12 ppm with corn rootworm stood at 0%. Further, in the experiment on corn rootworm, the mortality at 24 ppm is 0%.

Turning to `Fc1cccc2c(OCCc3ccccc3-c3ccccc3)ccnc12` [Example 237, 8-fluoro-4-[2-(1,1'-biphenyl)-2-yl-ethoxy]quinoline], the pest or weed control at 400 ppm in experiment [1] was in the range of 90 to 100%; in [2] it was 90 to 100%; in experiment [3], 20 to 89%; in experiment [4], 0 to 19%; in [5], 0 to 19%. In addition, the mortality at 200 ppm in [6], in experiment [7] and in [8] was 0% in each case. Further, the results for the mortality at 400 ppm in experiment [6], in experiment [7] and in experiment [8] were 0%, 100% and 0%, respectively. Moreover, the activity as miticides entry in experiment [7] was “particularly excellent activity”. Besides, the mortality at 12 ppm in the experiment on corn rootworm worked out at 0%. In addition, the mortality at 24 ppm with corn rootworm amounted to 0%.

As for `FC(F)(F)c1ccc2c(OCCc3ccccc3)ccnc2c1` [Example 239, 4-(2-phenylethoxy)-7-(trifluoromethyl)quinoline], the pest or weed control at 400 ppm in [1] was 90 to 100%; in [2], 90 to 100%; in experiment [3] it was 90 to 100%; in experiment [4], 0 to 19%; in experiment [5], 90 to 100%. In addition, the mortality at 200 ppm in experiment [6], in experiment [7] and in experiment [8] was 0% in each case. Further, the mortality at 400 ppm in [6], in experiment [7] and in [8] was 0% in each case. Besides, in the experiment with corn rootworm, the mortality at 12 ppm worked out at 0%. The mortality at 24 ppm in the experiment with corn rootworm is 0%.
